In patent US20160228452A1, “TREATMENT OF METABOLIC DISEASES BY INHIBTION OF HTR2A OR HTR3” (Korea Advanced Institute of Science and Technology, priority 2014, published 2016):
Entries after “also recorded” stand apart in the source; their conditions may differ.

What was measured:
[1] = test system: SV cells from Tph1 FKO mice; assay: Ex vivo differentiation of SVF from BAT of Tph1 FKO mice, Ucp1 mRNA; format: cell-based; conditions: after 8 days of differentiation
Procedure: The stromal vascular fraction of epididymal, inguinal and BAT from 6- to 7-week-old mice was separated by collagenase digestion. Briefly, the adipose tissues were dissected, minced and digested with 0.2% collagenase A (Roche) in Hank's balanced salts solution (Sigma) for 45 min at 37° C. with constant shaking. Mature adipocytes and connective tissues were separated from the cell pellet by centrifugation at 800×g for 10 min at 4° C. The cell pellet was then suspended with RBC lysis buffer (Sigma) and filtered through a 40-μm mesh filter (BD bioscience). The pelleted stromal vascular cells (SVCs) were re-suspended in DMEM containing 10% FBS and seeded in 6-well plates for adipogenic differentiation.
(§1) Total RNA was extracted from the mouse tissues or cell lines using TRIzol reagent (Invitrogen) according to the manufacturer's protocol. After TURBO DNase (Invitrogen) treatment, 2 μg of total RNA was used to generate complementary DNA with Superscript III reverse transcriptase (Invitrogen). To analyze gene expression, real-time PCR was performed with a ViiA 7 Real-Time PCR system (Applied Biosystems) and the Power SYBR Green PCR master mix (Applied Biosystems). Relative quantification was based on the ddCt method, and ActB was used as an endogenous control (internal control).

Htr2a [2] = target: T1, Htr2a (Mus musculus, UniProt P35363); assay: Glycerol release assay (lipolysis) in 3T3-L1 mature adipocytes; format: cell-based, murine; conditions: 24 h
Procedure: (§2) Murine 3T3-L1 cells (American Type Culture Collection) were cultured in DMEM supplemented with 10% fetal calf serum and 100 μg/mL P/S in a humidified atmosphere of 5% CO2 at 37° C. Two days after reaching confluence, the cells were induced to differentiate using medium supplemented with 0.5 mM IBMX, […] and 1 μM dexamethasone (day 0). After two days, the medium was replaced with DMEM supplemented with […] in 10% FBS and P/S (day 2), and it was changed every two days from days 4 to 8.
Lipolysis was measured as the rate of glycerol release using a free glycerol reagent (Sigma) following the manufacturer's protocol. Briefly, fully differentiated 3T3-L1 adipocytes in a 24-well plate were incubated with 5-HT or DOI in Krebs Ringer phosphate buffer (136 mM NaCl, 4.7 mM KCl, 10 mM NaPO4, 0.9 mM MgSO4, and 0.9 mM CaCl2) containing 4% fatty acid-free bovine serum albumin (Sigma) for 24 h. Isoproterenol was used as a positive control. After incubation, 10 μL of the cell culture supernatant was mixed with 0.8 mL of the free glycerol reagent, and the mixture was then incubated at 37° C. for 5 min. The absorbance of the sample was determined at 540 nm using a spectrophotometer (DU730 Life Science UV/Vis, Beckman Coulter, Indianapolis, Ind., USA). The amount of released glycerol was expressed relative to the cellular protein content.

Htr3 [3] = target: T2, Htr3 (Mus musculus, UniProt P23979); assay: OCR assay (Seahorse XF24) in IBAs; format: cell-based; conditions: fully differentiated IBAs pretreated 30 min, then β3 agonist CL-316243
T2 construct: we explored the direct actions of Htr3 on BAT using immortalized brown adipocytes (IBAs); endogenous in cells; host or cells: differentiated immortalized brown adipocytes (IBAs)
T2 sequence (P23979 24-489): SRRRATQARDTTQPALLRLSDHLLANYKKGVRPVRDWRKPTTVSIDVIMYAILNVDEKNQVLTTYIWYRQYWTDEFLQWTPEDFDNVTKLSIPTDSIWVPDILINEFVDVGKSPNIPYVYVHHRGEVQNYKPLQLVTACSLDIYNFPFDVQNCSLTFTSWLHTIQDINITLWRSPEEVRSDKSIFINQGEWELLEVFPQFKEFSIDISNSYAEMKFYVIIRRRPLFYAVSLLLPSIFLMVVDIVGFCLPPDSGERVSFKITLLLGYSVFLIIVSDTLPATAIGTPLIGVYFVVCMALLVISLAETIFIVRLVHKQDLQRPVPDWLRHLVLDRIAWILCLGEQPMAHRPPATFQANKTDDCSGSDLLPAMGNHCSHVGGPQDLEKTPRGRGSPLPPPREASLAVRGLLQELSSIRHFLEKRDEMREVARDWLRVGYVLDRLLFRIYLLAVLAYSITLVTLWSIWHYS
T2 sequence (Q9JHJ5 22-437 partner): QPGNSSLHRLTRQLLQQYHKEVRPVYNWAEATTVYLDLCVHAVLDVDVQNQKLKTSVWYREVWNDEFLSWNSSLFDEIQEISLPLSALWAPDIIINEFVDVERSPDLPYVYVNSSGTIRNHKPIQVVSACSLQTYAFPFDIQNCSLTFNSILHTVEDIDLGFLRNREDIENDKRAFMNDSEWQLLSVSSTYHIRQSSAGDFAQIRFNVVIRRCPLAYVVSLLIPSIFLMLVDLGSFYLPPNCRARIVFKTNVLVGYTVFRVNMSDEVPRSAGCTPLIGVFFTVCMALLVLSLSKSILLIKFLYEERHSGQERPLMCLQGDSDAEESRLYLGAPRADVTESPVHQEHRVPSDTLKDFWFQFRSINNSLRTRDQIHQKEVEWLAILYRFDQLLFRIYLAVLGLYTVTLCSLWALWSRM
Procedure: IBAs were cultured in DMEM supplemented with 10% FBS and P/S in a humidified atmosphere of 5% CO2 at 37° C.^32. After reaching 95% confluence, the cells were induced to differentiate using DMEM with 10% FBS, 0.5 μg/mL insulin, 1 nM T3, 0.125 mM indomethacin, 2 μg/mL dexamethasone, 0.5 μM IBMX and P/S (day 0). After two days, the medium was replaced with DMEM supplemented with 10% FBS, 0.5 μg/mL insulin, 1 nM T3 and P/S (day 2), and it was changed every two days from days 4 to 8. […] The OCRs of the cells were measured using a Seahorse XF analyzer (Seahorse Bioscience, Billerica, Mass., USA). After seeding IBAs on an XF-24 plate, the cells were incubated and differentiated using the protocol described above. Fully differentiated IBAs were pre-treated with PBS and ondansetron for 30 min. Then, the IBAs were treated with the β3 agonist (CL-316243) and the mitochondrial inhibitors oligomycin and rotenone/antimycin. The OCRs were calculated and recorded by a sensor cartridge and the Seahorse XF-24 software.

Htr3 [4] = target: T2, Htr3; assay: Real-time PCR of thermogenic genes in IBAs; format: cell-based; conditions: 2 h after ondansetron treatment
Procedure: (§3) IBAs were cultured in DMEM supplemented with 10% FBS and P/S in a humidified atmosphere of 5% CO2 at 37° C.^32. After reaching 95% confluence, the cells were induced to differentiate using DMEM with 10% FBS, 0.5 μg/mL insulin, 1 nM T3, 0.125 mM indomethacin, 2 μg/mL dexamethasone, 0.5 μM IBMX and P/S (day 0). After two days, the medium was replaced with DMEM supplemented with 10% FBS, 0.5 μg/mL insulin, 1 nM T3 and P/S (day 2), and it was changed every two days from days 4 to 8. We confirmed that these cell lines are free from Mycoplasma infection.
as §1

Htr3 [5] = target: T2, Htr3; assay: cAMP assay (competitive ELISA) in immortalized brown adipocytes; format: cell-based
Procedure: as §3
Differentiated IBAs were treated with 1 uM ondansetron or 100 nM m-CPBG or 1 uM CL-316243 for 15 min. 1 uM […] was used as a positive control. The cAMP competitive ELISA (Promega) was performed according to the manufacturer's instruction. Briefly, cAMP was extracted by adding 0.1 M HCl with 0.5% triton X-100 to the cells. After centrifugation at 600 g for 10 min, the supernatant was used for the determination of cAMP levels by competitive cAMP ELISA.

Htr3 [6] = target: T2, Htr3; assay: Western blot for phosphorylation of PKA pathway components in IBAs; format: cell-based; conditions: IBAs pretreated with ondansetron, in the presence of β3-adrenergic receptor agonist
Procedure: as §3
Whole-cell lysates were extracted by incubating cells in RIPA buffer (25 mM Tris-HCl pH 7.6, 150 mM NaCl, 1% NP-40, 1% sodium deoxycholate, 0.1% SDS) plus protease inhibitors (Roche). Supernatant was collected following a brief centrifuge, and protein concentrations in the supernatant were determined using the BCA Protein Assay Kit (Thermo Scientific, Rockford, Ill., USA). The cell lysates were then mixed with equal volumes of 2× Laemmli buffer (4% SDS, 20% glycerol, 10% 2-mercaptoethanol, 0.01% bromophenol blue, and 120 mM Tris-HCl, pH 6.8) and boiled for 5 min at 95° C. Then, the protein samples were separated by SDS-PAGE and transferred to a PVDF membrane (Millipore). […]

Htr2a [7] = target: T1, Htr2a; assay: Real-time PCR of lipogenic genes in 3T3-L1 mature adipocytes; format: cell-based, murine
Procedure: as §2, §1

Htr2a [8] = target: T1, Htr2a; assay: Oil Red O staining of 3T3-L1 adipocytes; format: cell-based, murine; conditions: treatment during differentiation, absorbance at 520 nm
Procedure: Murine 3T3-L1 cells (American Type Culture Collection) were cultured in DMEM supplemented with 10% fetal calf serum and 100 μg/mL P/S in a humidified atmosphere of 5% CO2 at 37° C. Two days after reaching confluence, the cells were induced to differentiate using medium supplemented with 0.5 mM IBMX, 1 mg/mL insulin and 1 μM dexamethasone (day 0). After two days, the medium was replaced with DMEM supplemented with 1 mg/mL insulin in 10% FBS and P/S (day 2), and it was changed every two days from days 4 to 8. After full differentiation (day 8), 3T3-L1 adipocytes were fixed with 3.7% (w/v) formaldehyde in PBS for 15 min at room temperature and then washed three times with PBS. Then, the cells were stained with filtered Oil Red 0 solution (1.5 mg/mL 60% (v/v) isopropanol) for 30 min and then rinsed twice with distilled water. To quantify the amount of Oil Red 0 staining, the cells were eluted with 100% isopropranol for 10 min, and the absorbance densities of the extracts were measured at 520 nm using a VersaMax microplate reader (Molecular Devices, Sunnyvale, Calif., USA).

T1 sequence (P35363 whole entry): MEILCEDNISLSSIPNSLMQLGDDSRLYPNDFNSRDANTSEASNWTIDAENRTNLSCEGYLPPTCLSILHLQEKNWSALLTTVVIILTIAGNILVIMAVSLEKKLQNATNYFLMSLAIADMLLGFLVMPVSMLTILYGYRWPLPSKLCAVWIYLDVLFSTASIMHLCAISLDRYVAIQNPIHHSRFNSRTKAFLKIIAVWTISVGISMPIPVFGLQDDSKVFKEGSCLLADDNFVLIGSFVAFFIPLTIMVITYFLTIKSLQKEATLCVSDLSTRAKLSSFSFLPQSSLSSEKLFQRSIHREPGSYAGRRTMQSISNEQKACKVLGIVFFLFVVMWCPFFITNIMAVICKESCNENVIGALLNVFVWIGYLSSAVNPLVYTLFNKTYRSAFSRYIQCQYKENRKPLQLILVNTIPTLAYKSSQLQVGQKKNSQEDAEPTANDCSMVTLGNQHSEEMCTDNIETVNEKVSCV

## NCCc1c[nH]c2ccc(O)cc12 [5-HT, 5-hydroxytryptamine]
[1]
  Ucp1 mRNA level: abrogated; also recorded: suppressed
Htr2a [2]
  glycerol release (lipolysis): suppressed lipolysis; also recorded: reduced the glycerol release

## Cc1nccn1CC1CCc2c(c3ccccc3n2C)C1=O (racemic) [ondansetron, (RS)-9-methyl-3-[(2-methyl-1H-imidazol-1-yl)methyl]-2,3-dihydro-1H-carbazol-4(9H)-one]
Htr3 [3]
  oxygen consumption rate (OCR): increased the OCR synergistically; also recorded: increased the oxygen consumption rate
Htr3 [4]
  mRNA expression of thermogenic genes (Ucp1, Ppargc1a): increased
Htr3 [5]; IBAs pretreated with 1 uM ondansetron, in the presence of β3-adrenergic receptor agonist CL 316243
  cAMP level after β3AR stimulation: increased cAMP levels
Htr3 [5]; IBAs, 1 uM ondansetron or 100 nM m-CPBG, 15 min
  cAMP level in the absence of β3AR agonist: did not affect cAMP levels
Htr3 [6]
  phosphorylation of HSL and PKA substrate (PKA pathway components) after β3AR stimulation: increased phosphorylation

## COc1cc(CC(C)N)c(OC)cc1I (stereo not shown) [DOI, 2,5-dimethoxy-4-iodoamphetamine]
Htr2a [7]
  mRNA levels of lipogenic genes: increased
Htr2a [2]
  glycerol release (lipolysis): suppressed lipolysis; also recorded: reduced the glycerol release

## O=C(c1ccc(F)cc1)C1CCN(CCn2c(=O)[nH]c3ccccc3c2=O)CC1 [ketanserin, 3-{2-[4-(4-fluorobenzoyl)piperidin-1-yl]ethyl}quinazoline-2,4(1H,3H)-dione]
Htr2a [8]
  lipogenesis (optical density of Oil Red O extract): decreased lipogenesis; also recorded: reduced the optical density of the extract
